Where two headings read alike, the source gives them in different places.
Assays:
[1] = system: Porphyromonas gingivalis (DSM 20709, ATCC33277); test: Minimum inhibitory concentration (MIC), DIN 58940-8 micro dilution method; format: cell-based; conditions: for MIC: Porphyromonas gingivalis
Experimental: (§1) MIC data were evaluated based on DIN 58940-8 micro dilution method. For the experiments three relevant bacteria occurring in the oral biofilm were selected: Streptococcus mutans (DSM 20523, ATCC 25175), Porphyromonas gingivalis (DSM 20709, ATCC33277), and Prevotella intermedia (DSM 20706, ATCC25611).
(§2) All test organisms were cultivated in suitable complex medium and under anaerobic and/or microaerophilic conditions. Every test substance was applied as technical triplicate on a 96-microtiter plate in a total volume of 300 μL per well. The inoculum was directly transferred from a glycerin stock solution or from a freshly prepared preculture. Therefore 15 mL reagent tubes were filled with specific complex growth medium and inoculated with skim milk stocks of single strains. The incubation was done at 37° C. up to 48 h until an OD620>0.1-1.0. Suspensions were controlled microscopically. In both cases the bacteria were transferred and diluted to fresh complex medium on a 96 well plate.
(§3) Test substances were either the pure materials or mixtures. The mixtures contain a cooling compound and an aroma component according to claims. Further these effective building blocks can be included in an aroma composition. Therefore, nature identical (synthetic) bases (base nature identical A/B) and/or natural basic formulations (base natural A/B) can be added.
(§4) The mixtures contained either Carvacrol (synthetic material) or the natural oregano oil with a typical Carvacrol content in the range of 50-80%.
(§5) Test substances were 100-fold solved in dimethyl sulfoxide (DMSO) and diluted directly on the 96 well plate. As […] farnesol and/or triclosan were applied in appropriate concentrations from 1 to 100 ppm. An untreated medium control was applied as growth control. The incubation of the test plates was done for 16-24 h at 37° C. At the end of the experiment, growth was determined photometrically by detecting OD620 values using Sunrise Photometer (TECAN, Austria). Mean values of triplicates were calculated and normalized with blank values (growth medium with or without test substances). The growths of treated wells were evaluated in relation to the growth control. Minimum inhibition concentrations (MIC) were defined as minimal concentration (in ppm) that causes a complete inhibition of bacterial growth.
(§6) Synergies were calculated using the following formula. The formula can be modified according to the number of components per mixture. MIC stands for minimum inhibitory concentration with the dimension of parts per million [ppm].
(§7) [formula] • MICmix=MIC value of mixture [ppm] • PA=Percentage of component A [%] • MIC A=MIC value of component A [ppm] • PB=Percentage of component B [%] • MIC B=MIC value of component B [ppm] A synergism is given if the resulting value is below 1.

[2] = system: Prevotella intermedia (DSM 20706, ATCC25611); test: as above; format: cell-based; conditions: for MIC: Prevotella intermedia
Experimental: as §1, §2, §3, §4, §5, §6, §7

[3] = system: Streptococcus mutans (DSM 20523, ATCC 25175); test: as above; format: cell-based; conditions: for MIC: Streptococcus mutans
Experimental: as §1, §2, §3, §4, §5, §6, §7

oral biofilm = test: Ex vivo biofilm model (Calgary Biofilm Device, FDA hydrolysis); format: cell-based, human; conditions: compared to untreated control biofilm (100%); treatment 4 times within 2 days for 2 min at 37° C.
Experimental: The experiment was developed following the method described in WO2018/033211 and Kistler et al (Kistler et al. 2015).
Up to 50 subjects were recruited for saliva donation. Participants were between 18 and 65 years old and medically healthy. Subjects who had taken antibiotics, ate antimicrobial food such as garlic within last 24 h and/or had suffer from any systemic conditions that may affected their immune or inflammatory status, were excluded from the study. Fresh morning saliva from all donors were selected and pooled. All volunteers were asked to refrain from drinking, eating, or brushing their teeth bevor donating by expectoration into sterile universal tubes.
The Calgary Biofilm Device (CBD) was originally developed for medical usage. It is commercially available as MBEC (Minimum Biofilm Eradication Concentration) Biofilm Inoculator and it is suitable as a basis for biofilm research (Kistler et al. 2015; Ceri et al. 1999). […]
Stock solutions of all test substances were prepared in dimethylsulfoxide (DMSO). […] At the end the pegs were washed again, and microbial activity was quantified photometrically by fluorescein diacetate (FDA) hydrolysis. FDA is converted into fluorescein by protease, lipase, and esterase activities in the biofilm, thus the quantification of fluorescein represents the activity of the biofilm.

[4] = S. mutans, component alone, read-out: MIC B (MIC value of component B)
[5] = read-out: MIC A (MIC value of component A)

For `CC(C)[C@@H]1CC[C@@H](C)C[C@H]1OC(=O)[C@@H](C)O` (stereo in doubt) [Menthyl lactate], the MIC ([1]; P. gingivalis, component alone, read-out: MIC B (MIC value of component B)) was 125 µg/mL, the MIC ([2]; P. intermedia, component alone, read-out: MIC B (MIC value of component B)) was 125 µg/mL and the MIC [3, 4] was 250 µg/mL.
`CC(C)[C@@H]1CC[C@@H](C)C[C@H]1OCC(O)CO` (stereo partly drawn) [3-(−)-Menthoxy)propane-1,2-diol] showed an MIC [3, 4] of 500 µg/mL.
In the case of `Cc1ccc(C(C)C)cc1O` [Carvacrol], the “relative biofilm activity after treatment (FIG. 1)” value (oral biofilm) is reported as “concentration dependent oral biofilm reduction”, the MIC [1, 5] is reported as 250 µg/mL and the MIC [2, 5] is reported as 250 µg/mL. The MIC [3, 5] was 250 µg/mL.
With `CC1CCC(C(C)C)C2(C1)OCC(CO)O2` [D,L-Menthone glyceryl ketal] the “MIC B (MIC value of component B)” value ([1]; P. gingivalis, component alone) was 250 ppm, the “MIC B (MIC value of component B)” value ([2]; P. intermedia, component alone) was 250 ppm and the “MIC B (MIC value of component B)” value ([3]; S. mutans, component alone) was 500 ppm.
In the case of `CC(O)COC(=O)O[C@@H]1C[C@H](C)CC[C@H]1C(C)C` (stereo partly shown) [Menthyl propylene glycol carbonate], the “MIC B (MIC value of component B)” value ([3]; S. mutans, component alone) is reported as 125 ppm.
With (−)-Menthyl propylene glycol carbonate the “MIC B (MIC value of component B)” value ([1]; P. gingivalis, component alone) was 125 ppm.

— patent US20250352444A1, “Antimicrobial mixtures” (Symrise AG, priority 2022, published 2025)
